# Assay results published in patent US6632831B2, “Branched chain amino acid-dependent aminotransferase inhibitors and their use in the treatment of neurodegenerative diseases” (Pfizer Inc., priority 2001, dated 2003).
# Values joined by “and” are separate entries in the source; they are usually repeats but may differ in a detail not shown here. Identical values can stand only once.
# Target: T1, human Branched Chain Amino Acid Aminotransferase cytosolic form (hBCATc) (Homo sapiens, UniProt P54687)
# T1 construct: inferred from purification on a Ni-charged chelating column with imidazole elution; made in house; host or cells: E. coli BL21(DE3)
# T1 sequence (P54687 1-386): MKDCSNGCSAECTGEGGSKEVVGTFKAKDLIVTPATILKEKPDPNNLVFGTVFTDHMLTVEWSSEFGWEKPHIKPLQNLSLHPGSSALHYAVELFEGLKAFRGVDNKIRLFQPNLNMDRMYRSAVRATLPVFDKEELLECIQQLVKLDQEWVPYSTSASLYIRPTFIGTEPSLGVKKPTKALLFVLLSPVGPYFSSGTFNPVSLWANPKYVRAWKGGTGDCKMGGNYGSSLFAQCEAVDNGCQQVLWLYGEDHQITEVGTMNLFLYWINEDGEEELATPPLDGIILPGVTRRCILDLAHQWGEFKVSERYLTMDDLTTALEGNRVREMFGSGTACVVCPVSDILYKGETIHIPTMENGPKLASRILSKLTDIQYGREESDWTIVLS
# Assay: In vitro coupled enzyme assay, hBCATc
# Assay type: biochemical
# Details: 37° C., 25 mM phosphate buffer pH 7.8; coupled glutamate dehydrogenase assay; read-out: hBCATc I50
# Experimental: In vitro enzyme assay—human Branched Chain Amino Acid Aminotransferase cytosolic form (hBCATc) and mitochondrial form (hBCATm) were assayed at 37° C. in 25 mM phosphate buffer pH 7.8. In addition, 2 mM DTT and 12.5 mM EDTA were added to the assay mixture. A coupling enzyme assay was used to monitor the production of glutamate. The formation of NADH from NAD+at […] was followed on a 96-well plate Molecular Devices plate reader. The following components were used in this coupled assay: 4 mM ADP, 1 mM NAD+, 750 μM L-Leucine, 500 μM (α-ketoglutarate, 10 μM pyridoxal phosphate, 1 unit glutamate dehydrogenase, and 1.25 μg of the appropriate BCAT enzyme. Inhibitions by compounds were assayed by adding various concentrations to this coupled assay procedure as a DMSO stock up to a 5% v/v DMSO/buffer ratio. Data is shown in Table 1.
# Enzyme Preparation—humanBCATc was expressed in BL21(DE3) cells. A growing culture of cells was induced with 1 mM IPTG at room temperature overnight. These cells were harvested by centrifugation at 10,000 g for 20 minutes. The supernatant was discarded, and the cells were stored at −80° C. until needed. The protein was purified by the following method. The cell paste was resuspended in extraction buffer (0.1 M phosphate, pH 8.0, with 0.01 M Tris-HCL and 5 mM TCEP and then lysed on a French Press at 1000 psi. The lysate was centrifuged at 10,000 g for 15 minutes, and the pellet was discarded. The supernatant was loaded onto a Hitrap Chelating column previously charged with 0.1 M NiSO4 and washed with 3 to 4 column volumes of extraction buffer. The column was then washed with 0.01 Tris, pH 7.5, 10% glycerol, 150 mM NaCl, 5 mM TCEP for two column volumes. The column was then further washed with two column volumes of 0.1 M phosphate, pH 6.0, 0.01 M Tris, 10% glycerol and 750 mM NaCl. Finally, the column was washed with two column volumes of the same buffer plus 50 mM imidazole. The BCAT enzyme was then eluted with the same buffer but with 350 mM imidazole. The eluant was then dialyzed overnight against 10 mM phosphate buffer pH 8.0, 10% glycerol, and 5 mM TCEP. The dialyzed protein was then loaded onto a Q-sepharose column and eluted using a salt gradient. Active fractions were collected and further purified on a Superose-12 column to yield pure BCAT protein.
row,Structure (SMILES),IC50
1,"CCOC(=O)/C=C1\SC(Nc2c(Cl)cccc2Cl)=NC1=O [Example 2, [2-(2,6-Dichloro-phenylamino)-4-oxo-4H-thiazol-5-ylidene]-acetic Acid Ethyl Ester]",52.5 µM
2,"CC(C)(C)OC(=O)/C=C1\SC(Nc2c(Cl)cccc2Cl)=NC1=O [Example 3, [2-(2,6-Dichloro-phenylamino)-4-oxo-4H-thiazol-5-ylidene]-acetic Acid Tert-butyl Ester]",68.6 µM and 36.9 µM
3,"COC(=O)/C=C1\SC(Nc2ccccc2C)=NC1=O [Example 4, [2-(2-Methyl-phenylamino)-4-oxo-4H-thiazol-5-ylidene]-acetic Acid Methyl Ester]",43.9 µM and 29.6 µM
4,"CNC(=O)/C=C1\SC(Nc2c(Cl)cccc2Cl)=NC1=O [Example 6, [2-(2,6-Dichloro-phenylamino)-4-oxo-4H-thiazol-5-ylidene]-N-methyl-acetamide]",3.1 µM and 1.9 µM
5,"CCNC(=O)/C=C1\SC(Nc2c(Cl)cccc2Cl)=NC1=O [Example 7, [2-(2,6-Dichloro-phenylamino)-4-oxo-4H-thiazol-5-ylidene]-N-ethyl-acetamide]",13.1 µM and 3.15 µM
6,"CCCNC(=O)/C=C1\SC(Nc2c(Cl)cccc2Cl)=NC1=O [Example 8, [2-(2,6-Dichloro-phenylamino)-4-oxo-4H-thiazol-5-ylidene]-N-propyl-acetamide]",35.7 µM and 17.4 µM
7,"COCCNC(=O)/C=C1\SC(Nc2c(Cl)cccc2Cl)=NC1=O [Example 16, 2-[2-(2,6-Dichloro-phenylamino)-4-oxo-4H-thiazol-5-ylidene]-N-(2-methoxy-ethyl)-acetamide]",82.7 µM
8,"CCN1CCN(C(=O)/C=C2\SC(Nc3c(Cl)cccc3Cl)=NC2=O)CC1 [Example 18, 2-(2,6-Dichloro-phenylamino)-5-[2-(4-ethyl-piperazin-1-yl)-2-oxo-ethylidene)-thiazol-4-one]",64.1 µM
9,"O=C(/C=C1\SC(Nc2c(Cl)cccc2Cl)=NC1=O)NCCCN1CCCC1 [Example 19, 2-[2-(2,6-Dichloro-phenylamino)-4-oxo-4H-thiazol-5-ylidene]-N-(3-pyrrolidin-1-yl-propyl)-acetamide]",55 µM
10,"CC(C)NC(=O)/C=C1\SC(Nc2c(Cl)cccc2Cl)=NC1=O [Example 20, 2-[2-(2,6-Dichloro-phenylamino)-4-oxo-4H-thiazol-5-ylidene]-N-isopropyl-acetamide]",65.9 µM
11,"CN(C)C1CCN(C(=O)/C=C2\SC(Nc3c(Cl)cccc3Cl)=NC2=O)C1 (stereo not shown) [Example 25, 2-(2,6-Dichloro-phenylamino)-5-[2-(3-dimethylamino-pyrrolidin-1-yl)-2-oxo-ethylidene)-thiazol-4-one]",65.1 µM
12,"O=C(/C=C1\SC(Nc2c(Cl)cccc2Cl)=NC1=O)NCCOCCO [Example 26, 2-[2-(2,6-Dichloro-phenylamino)-4-oxo-4H-thiazol-5-ylidene]-N-[2-(2-hydroxy-ethoxy)-ethyl]-acetamide]",56.3 µM
13,"O=C(/C=C1\SC(Nc2c(Cl)cccc2Cl)=NC1=O)NCC(O)CO (stereo not shown) [Example 28, 2-[2-(2,6-Dichloro-phenylamino)-4-oxo-4H-thiazol-5-ylidene]-N-(2,3-dihydroxy-propyl)-acetamide]",66.9 µM
14,"CN1CCC(N(C)C(=O)/C=C2\SC(Nc3c(Cl)cccc3Cl)=NC2=O)C1 (stereo not shown) [Example 32, 2-[2-(2,6-Dichloro-phenylamino)-4-oxo-4H-thiazol-5-ylidene]-N-methyl-N-(1-methyl-pyrrolidin-3-yl)-acetamide]",89.8 µM
15,"CNCCCCCCCCN(C)C(=O)/C=C1\SC(Nc2c(Cl)cccc2Cl)=NC1=O [Example 34, 2-[2-(2,6-Dichloro-phenylamino)-4-oxo-4H-thiazol-5-ylidene]-N-methyl-N-(8-methylamino-octyl)-acetamide]",75.6 µM

# Other lines, results leading:
row,IC50,Structure (SMILES)
1,41.2 µM,"CSCCCNC(=O)/C=C1\SC(Nc2c(Cl)cccc2Cl)=NC1=O [Example 27, 2-[2-(2,6-Dichloro-phenylamino)-4-oxo-4H-thiazol-5-ylidene]-N-(3-methylsulfanyl-propyl)-acetamide]"
2,40.4 µM,"O=C(/C=C1\SC(Nc2c(Cl)cccc2Cl)=NC1=O)NCCOc1ccccc1 [Example 33, 2-[2-(2,6-Dichloro-phenylamino)-4-oxo-4H-thiazol-5-ylidene]-N-(2-phenoxy-ethyl)-acetamide]"
3,39.8 µM,"COC(CNC(=O)/C=C1\SC(Nc2c(Cl)cccc2Cl)=NC1=O)OC [Example 23, 2-[2-(2,6-Dichloro-phenylamino)-4-oxo-4H-thiazol-5-ylidene]-N-(2,2-dimethoxy-ethyl)-acetamide]"
4,31.7 µM,"CONC(=O)/C=C1\SC(Nc2c(Cl)cccc2Cl)=NC1=O [Example 10, [2-(2,6-Dichloro-phenylamino)-4-oxo-4H-thiazol-5-ylidene]-N-methoxy-acetamide]"
5,31.1 µM,"C=C(C)CNC(=O)/C=C1\SC(Nc2c(Cl)cccc2Cl)=NC1=O [Example 29, 2-[2-(2,6-Dichloro-phenylamino)-4-oxo-4H-thiazol-5-ylidene]-N-(2-methyl-allyl)-acetamide]"
6,22.6 µM,"O=C(/C=C1\SC(Nc2c(Cl)cccc2Cl)=NC1=O)NC1CCCCC1 [Example 22, N-Cyclohexyl-2-[2-(2,6-dichloro-phenylamino)-4-oxo-4H-thiazol-5-ylidene]-acetamide]"
7,16.6 µM,"O=C(/C=C1\SC(Nc2c(Cl)cccc2Cl)=NC1=O)NC1CCCC1 [Example 30, N-Cyclopentyl-2-[2-(2,6-dichloro-phenylamino)-4-oxo-4H-thiazol-5-ylidene]-acetamide]"
8,13.8 µM,"O=C1N=C(Nc2c(Cl)cccc2Cl)S/C1=C\C(=O)N1CCCC1 [Example 21, 2-(2,6-Dichloro-phenylamino)-5-(2-oxo-2-pyrrolidin-1-yl-ethylidene)-thiazol-4-one]"
9,12.8 µM,"O=C1N=C(Nc2c(Cl)cccc2Cl)S/C1=C\C(=O)N1CCCCC1 [Example 17, 2-(2,6-Dichloro-phenylamino)-5-(2-oxo-2-piperidine-1-yl-ethylidene)-thiazol-4-one]"
10,11.2 µM,"CCCN(CC1CC1)C(=O)/C=C1\SC(Nc2c(Cl)cccc2Cl)=NC1=O [Example 31, N-Cyclopropylmethyl-2-[2-(2,6-dichloro-phenylamino)-4-oxo-4H-thiazol-5-ylidene]-N-propyl-acetamide]"
11,8.97 µM,"CC1CC(C)CN(C(=O)/C=C2\SC(Nc3c(Cl)cccc3Cl)=NC2=O)C1 (stereo not shown) [Example 24, 2-(2,6-Dichloro-phenylamino)-5-[2-(3,5-dimethyl-piperidin-1-yl)-2-oxo-ethylidene)-thiazol-4-one]"
12,4.1 µM,"COC(=O)/C=C1\SC(Nc2c(Cl)cccc2Cl)=NC1=O [Example 1, [2-(2,6-Dichloro-phenylamino)-4-oxo-4H-thiazol-5-ylidene]-acetic Acid Methyl Ester]"

# Same assay, conditions: @ 20 μM compound; 37° C., pH 7.8 coupled assay; read-out: hBCATc Inhibit % @ 20 μM
row,inhibition at 20 µM [%],Structure (SMILES)
1,130,"O=C(/C=C1\SC(Nc2c(Cl)cccc2Cl)=NC1=O)NCc1ccc(Cl)cc1 [Example 35, N-(4-Chloro-benzyl)-2-[2-(2,6-dichloro-phenylamino)-4-oxo-4H-thiazol-5-ylidene]-acetamide]"
2,34,"CC(C)CCC(C)NC(=O)/C=C1\SC(Nc2c(Cl)cccc2Cl)=NC1=O (stereo not shown) [Example 37, 2-[2-(2,6-Dichloro-phenylamino)-4-oxo-4H-thiazol-5-ylidene]-N-(1,4-dimethyl-pentyl)-acetamide]"
3,33,"CC(C)CC(C)NC(=O)/C=C1\SC(Nc2c(Cl)cccc2Cl)=NC1=O (stereo not shown) [Example 38, 2-[2-(2,6-Dichloro-phenylamino)-4-oxo-4H-thiazol-5-ylidene]-N-(1 ,3-dimethyl-butyl)-acetamide]"
4,39,"O=C(/C=C1\SC(Nc2c(Cl)cccc2Cl)=NC1=O)NC1CCCCCC1 [Example 39, N-Cycloheptyl-2-[2-(2,6-dichloro-phenylamino)-4-oxo-4H-thiazol-5-ylidene]-acetamide]"
